This is an account of results in patent US6748954B2, “Drug release from polymer matrices through mechanical stimulation” (The Regents of The University of Michigan, priority 2000, dated 2004).

The series can be described thus: in vitro release of trypan blue from alginate hydrogel disks with or without compression. It counts as physicochemical. On the procedure: In a first in vitro experiment, alginate hydrogels were prepared comprising 10 g PROTANAL, 4 mg trypan blue (Sigma Chemical) as a model drug molecule, and 63 mg CaSO4 (Sigma Chemical). The hydrogels were cut into disks of approximately 12.7 mm diameter and approximately 2 mm thick, and thereafter swollen overnight in the commercially available Dulbecco's Modified Eagle's Medium (DMEM). The hydrogel disks so prepared were next placed in custom-made sample holders of 13 mm diameter and 30 mm length. Porous stainless steel supports were provided on both the top and bottom of each hydrogel disk to permit release of the trypan blue drug during compression of the hydrogels.
The results of this first, in vitro experiment are shown in FIG. 1, which figure comprises an upper chart graphically depicting the mechanical stimulation cycle of compression/relaxation relative to a lower chart graphically depicting the release of the trypan blue drug from the mechanically stimulated hydrogels (line A). The control, non-compressed hydrogels are also depicted in this lower chart (line B).

For the molecule `Cc1cc(-c2ccc(/N=N/c3c(S(=O)(=O)O)cc4cc(S(=O)(=O)O)cc(N)c4c3O)c(C)c2)ccc1/N=N/c1c(S(=O)(=O)O)cc2cc(S(=O)(=O)O)cc(N)c2c1O` [trypan blue], under “compressed (A) versus non-compressed (B) hydrogels”, the “effect of compression on trypan blue release” value is on record as “did not significantly alter”. Further, the “release of the trypan blue drug from the compressed hydrogels” value (compressed hydrogels (line A), three compression/relaxation cycles, 10% maximum compressive strain, DMEM-swollen) is reported as “increased steadily”.
